Measured values taken from patent US20060100199A1, “Novel condensed imidazole derivatives” (priority 2003, published 2006).
Counter-ions that a name gives are not always drawn.

Tests used:
[1] = biological target: T1, CYP2D6 (Homo sapiens, UniProt P10635); assay: Assessment for drug-metabolizing enzyme (cytochrome P450), CYP2D6; assay type: in vitro ADME; conditions: recombinant P450, fluorescent substrate AMMC
T1 construct: purchased GENTEST Corp
Method: (§1) <Assessment for Drug-Metabolizing Enzyme (Cytochrome P450)>
(§2) The experimental conditions used are shown below. The fluorescence intensity was determined using a plate reader (CYTO FLUOR Multi-Well Plate Reader Series 4000; PerSeptive Biosystems Corp.). The degree of inhibition was determined as a mean value from nine independent assays […] using as an index the intensity fluorescence emitted from the metabolite of the fluorescent substrate.
(§3) The substrates, metabolites, inhibitors, excitation wavelengths, and fluorescence wavelengths used in the assay are shown in Table 2.

[2] = biological target: T2, CYP1A2 (Homo sapiens, UniProt P05177); assay: Assessment for drug-metabolizing enzyme (cytochrome P450), CYP1A2; assay type: in vitro ADME; conditions: recombinant P450, fluorescent substrate CEC
T2 construct: purchased GENTEST Corp
T2 sequence (P05177 1-516): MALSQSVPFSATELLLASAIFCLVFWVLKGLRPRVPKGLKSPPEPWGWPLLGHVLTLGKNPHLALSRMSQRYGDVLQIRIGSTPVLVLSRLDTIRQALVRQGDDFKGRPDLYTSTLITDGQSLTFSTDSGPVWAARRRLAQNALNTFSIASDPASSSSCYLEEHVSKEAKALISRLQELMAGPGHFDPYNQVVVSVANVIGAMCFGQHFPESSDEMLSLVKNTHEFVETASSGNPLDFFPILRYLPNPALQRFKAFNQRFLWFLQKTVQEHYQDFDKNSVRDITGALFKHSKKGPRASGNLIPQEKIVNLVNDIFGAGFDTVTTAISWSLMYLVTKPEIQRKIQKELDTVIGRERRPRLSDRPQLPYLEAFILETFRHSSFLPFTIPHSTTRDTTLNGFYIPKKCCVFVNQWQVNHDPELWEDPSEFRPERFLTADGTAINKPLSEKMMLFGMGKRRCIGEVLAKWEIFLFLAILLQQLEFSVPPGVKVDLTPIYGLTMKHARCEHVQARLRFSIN
Method: as §1, §2, §3

[3] = test system: fasted male Wistar rats; assay: Effect on the blood glucose level of fasted male Wistar rats (in vivo test); conditions: oral dose of 10-30 (mg/kg); 0.5, 1 and 3 hours after administration; compared with control group treated with the medium alone
Method: Purpose: Effect of a Test Compound on the Blood Glucose Level of Fasted Male Wistar Rats
Animal: male Wistar rats (purchased from Charles River Japan, Inc.)
A test compound was suspended in 0.5% methyl cellulose (MC) solution and administered orally at a dose of 5 mL/kg. The control group was treated with a 0.5% MC solution. The solution was administered orally at a dose of 5 mL/kg.
Immediately before administering a test compound or 0.5% MC solution, and 0.5, 1, and 3 hours after the administration, without anesthetic the caudal vein was lightly cut with a razor blade to let the blood out. 10 μL of blood was collected and combined with 140 μL of 0.6 M perchloric acid solution. The sample was centrifuged at 3000 g at 4° C. for 10 minutes and the resultant supernatant was assayed with the Glucose CII TEST WAKO (Wako Pure Chemical Industries).

[4] = test system: male C57BL/6N mice; assay: Acceptable timing of administration in in vivo test; conditions: oral, simultaneously with vs one hour before glucose loading (2 g/kg); improvement factor for glucose tolerance compared
Method: Acceptable Timing of Administration in in vivo Test
The respective tests described below were carried out in combination with the in vivo test (administration before 0.5 hour) as described in Assay Example 2:
1. A test compound is administered simultaneously with glucose loading (2 g/kg) (the test compound is suspended in an aqueous solution of 0.5% methyl cellulose; the solution is combined with an equal volume of a glucose solution; and the mixture is administered orally at a dose of 10 ml/kg);
2. A test compound is administered one hour before glucose loading (2 g/kg) (the test compound suspended in an aqueous solution of 0.5% methyl cellulose is administered orally one hour before the oral administration of the glucose solution; each is given orally at a dose of 10 ml/kg).
The improvement factor for glucose tolerance is estimated in each test.

[5] = biological target: T3, CYP2C9 (Homo sapiens, UniProt P11712); assay: Assessment for drug-metabolizing enzyme (cytochrome P450), CYP2C9; assay type: in vitro ADME; conditions: recombinant P450, fluorescent substrate MFC
T3 construct: purchased GENTEST Corp
T3 sequence (P11712 whole entry): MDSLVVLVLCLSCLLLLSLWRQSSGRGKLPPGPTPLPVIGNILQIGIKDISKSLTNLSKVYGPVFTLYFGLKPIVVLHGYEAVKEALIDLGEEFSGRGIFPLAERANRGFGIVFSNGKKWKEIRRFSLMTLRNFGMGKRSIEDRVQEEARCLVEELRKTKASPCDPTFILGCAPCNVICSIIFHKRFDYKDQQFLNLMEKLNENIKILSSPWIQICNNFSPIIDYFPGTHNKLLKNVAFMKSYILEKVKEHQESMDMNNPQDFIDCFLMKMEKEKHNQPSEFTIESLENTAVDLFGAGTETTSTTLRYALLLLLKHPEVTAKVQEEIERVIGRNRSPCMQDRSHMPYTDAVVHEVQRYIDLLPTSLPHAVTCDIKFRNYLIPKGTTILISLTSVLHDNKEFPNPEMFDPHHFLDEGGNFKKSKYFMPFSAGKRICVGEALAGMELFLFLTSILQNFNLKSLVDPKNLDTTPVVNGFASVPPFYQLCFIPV
Method: as §1, §2, §3

[6] = biological target: T4, CYP3A4 (Homo sapiens, UniProt P08684); assay: Assessment for drug-metabolizing enzyme (cytochrome P450), CYP3A4; assay type: in vitro ADME; conditions: recombinant P450, fluorescent substrate BFC
T4 construct: purchased GENTEST Corp
T4 sequence (P08684 whole entry): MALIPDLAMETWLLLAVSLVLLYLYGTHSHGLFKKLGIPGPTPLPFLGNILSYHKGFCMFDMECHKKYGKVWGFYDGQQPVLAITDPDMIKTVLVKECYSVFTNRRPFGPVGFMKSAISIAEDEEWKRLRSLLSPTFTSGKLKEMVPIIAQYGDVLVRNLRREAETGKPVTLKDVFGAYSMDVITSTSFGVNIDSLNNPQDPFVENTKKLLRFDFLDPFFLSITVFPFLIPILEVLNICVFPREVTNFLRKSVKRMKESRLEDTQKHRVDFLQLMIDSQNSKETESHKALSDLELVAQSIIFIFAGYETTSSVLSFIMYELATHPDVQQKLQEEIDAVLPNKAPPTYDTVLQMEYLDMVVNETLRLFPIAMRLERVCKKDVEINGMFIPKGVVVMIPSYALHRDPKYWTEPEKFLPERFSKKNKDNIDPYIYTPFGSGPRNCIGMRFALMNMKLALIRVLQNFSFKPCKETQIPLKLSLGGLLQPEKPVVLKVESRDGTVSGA
Method: as §1, §2, §3

[7] = biological target: T5, hERG channel (Homo sapiens, UniProt Q12809); assay: Suppression of hERG channel current; assay type: cell-based; conditions: HEK-293 cells with hERG channel gene (subtype 1), patch clamp, peak tail current at −50 mV
T5 construct: expressed in transfected cells; host or cells: HEK-293 cells (cell line established by the inventors)
T5 sequence (Q12809 whole entry): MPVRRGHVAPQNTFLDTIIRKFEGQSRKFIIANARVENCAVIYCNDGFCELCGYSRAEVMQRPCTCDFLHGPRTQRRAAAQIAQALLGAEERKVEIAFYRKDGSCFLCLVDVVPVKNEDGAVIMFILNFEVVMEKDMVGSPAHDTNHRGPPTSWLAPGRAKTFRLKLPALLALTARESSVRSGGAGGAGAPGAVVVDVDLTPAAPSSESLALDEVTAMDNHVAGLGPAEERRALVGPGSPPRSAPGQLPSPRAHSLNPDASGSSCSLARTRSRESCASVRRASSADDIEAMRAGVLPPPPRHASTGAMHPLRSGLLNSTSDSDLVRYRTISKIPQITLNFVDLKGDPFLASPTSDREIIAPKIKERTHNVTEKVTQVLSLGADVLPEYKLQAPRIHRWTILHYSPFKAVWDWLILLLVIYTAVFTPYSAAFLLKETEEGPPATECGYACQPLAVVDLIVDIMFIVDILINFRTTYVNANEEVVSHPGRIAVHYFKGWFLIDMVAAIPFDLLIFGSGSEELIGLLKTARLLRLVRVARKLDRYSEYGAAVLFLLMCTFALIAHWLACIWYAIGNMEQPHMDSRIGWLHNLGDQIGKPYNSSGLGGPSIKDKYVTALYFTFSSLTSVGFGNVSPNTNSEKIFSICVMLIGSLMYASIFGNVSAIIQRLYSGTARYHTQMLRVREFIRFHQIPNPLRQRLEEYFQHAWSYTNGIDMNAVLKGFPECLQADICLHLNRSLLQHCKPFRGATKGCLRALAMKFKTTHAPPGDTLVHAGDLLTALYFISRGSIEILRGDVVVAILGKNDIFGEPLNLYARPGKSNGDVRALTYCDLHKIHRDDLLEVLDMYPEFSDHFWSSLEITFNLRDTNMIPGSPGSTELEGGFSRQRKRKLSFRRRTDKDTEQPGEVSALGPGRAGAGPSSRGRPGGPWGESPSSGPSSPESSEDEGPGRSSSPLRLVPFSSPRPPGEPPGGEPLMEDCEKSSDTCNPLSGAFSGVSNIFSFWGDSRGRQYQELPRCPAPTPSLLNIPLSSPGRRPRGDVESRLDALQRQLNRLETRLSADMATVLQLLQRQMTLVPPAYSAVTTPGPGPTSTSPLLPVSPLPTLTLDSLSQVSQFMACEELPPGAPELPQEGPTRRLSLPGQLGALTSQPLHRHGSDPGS
Method: <Suppression of hERG Channel Current>
(1) Activity towards inhibiting the hERG channel current was evaluated according to the report Zhou, Z et al, Biophysical Journal, 74(1), 230-241 (1998).
(2) This experiment was carried out using HEK-293 cells into which the hERG channel gene (subtype 1) had been introduced (the cell line was established by the inventors).
(3) One to several days before the experiment, cells were plated on a poly-lysine-coated glass plate. The cells were cultured until the day of the experiment. At the start of the experiment, the cell-seeded glass plate was transferred into a bath for current measurement. The hERG channel current was measured by the voltage clamp method using the patch clamp technique. The current was measured using a current amplifier (Axon Instruments). The current was recorded and analyzed using pCLAMP software (Axon Instruments).
(4) The hERG channel current was induced by applying to the cells a depolarizing pulse from a holding potential of −80 mV to +20 mV for 5 seconds and to −50 mV for 4 seconds, at 20 second intervals. After the current became stable in a control solution, the cells were perfused with solutions containing various concentrations of test compounds.
(5) The amplitude of the hERG channel current was defined as the peak value of the tail current observed upon restoring the potential to −50 mV. The inhibiting effect of a test compound on the hERG channel current (IC50) was estimated based on the change in the peak value of tail current upon addition of the test compound at various concentrations. The peak value of tail current recorded for a normal solution was taken as 100%.

[8] = biological target: T6, CYP2C19 (Homo sapiens, UniProt P33261); assay: Assessment for drug-metabolizing enzyme (cytochrome P450), CYP2C19; assay type: in vitro ADME; conditions: recombinant P450, fluorescent substrate CEC
T6 construct: purchased GENTEST Corp
T6 sequence (P33261 whole entry): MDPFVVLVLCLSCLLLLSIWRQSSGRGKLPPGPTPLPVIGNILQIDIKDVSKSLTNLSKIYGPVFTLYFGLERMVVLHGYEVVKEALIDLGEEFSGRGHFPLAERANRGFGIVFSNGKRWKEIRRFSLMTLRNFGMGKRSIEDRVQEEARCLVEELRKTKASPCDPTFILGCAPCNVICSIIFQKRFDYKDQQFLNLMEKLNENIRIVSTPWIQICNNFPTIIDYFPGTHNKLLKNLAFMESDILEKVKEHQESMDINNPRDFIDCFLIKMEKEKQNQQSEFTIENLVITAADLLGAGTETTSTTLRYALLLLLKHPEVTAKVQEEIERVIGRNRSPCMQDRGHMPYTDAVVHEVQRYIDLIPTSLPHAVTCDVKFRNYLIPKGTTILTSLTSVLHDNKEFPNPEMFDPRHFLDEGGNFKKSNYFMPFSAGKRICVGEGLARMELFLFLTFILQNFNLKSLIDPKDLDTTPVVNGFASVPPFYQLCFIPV
Method: as §1, §2, §3

[9] = biological target: T7, Porcine kidney-derived DPP-IV (Sus scrofa, UniProt P22411); assay: DPPIV-inhibiting activity assay; assay type: biochemical; conditions: Gly-Pro-p-nitroanilide 0.33 mM, reaction time 20 minutes, absorbance at 405 nm
T7 construct: Porcine kidney-derived DPP-IV was dissolved in a reaction buffer; from tissue; host or cells: porcine kidney
T7 sequence (P22411 whole entry): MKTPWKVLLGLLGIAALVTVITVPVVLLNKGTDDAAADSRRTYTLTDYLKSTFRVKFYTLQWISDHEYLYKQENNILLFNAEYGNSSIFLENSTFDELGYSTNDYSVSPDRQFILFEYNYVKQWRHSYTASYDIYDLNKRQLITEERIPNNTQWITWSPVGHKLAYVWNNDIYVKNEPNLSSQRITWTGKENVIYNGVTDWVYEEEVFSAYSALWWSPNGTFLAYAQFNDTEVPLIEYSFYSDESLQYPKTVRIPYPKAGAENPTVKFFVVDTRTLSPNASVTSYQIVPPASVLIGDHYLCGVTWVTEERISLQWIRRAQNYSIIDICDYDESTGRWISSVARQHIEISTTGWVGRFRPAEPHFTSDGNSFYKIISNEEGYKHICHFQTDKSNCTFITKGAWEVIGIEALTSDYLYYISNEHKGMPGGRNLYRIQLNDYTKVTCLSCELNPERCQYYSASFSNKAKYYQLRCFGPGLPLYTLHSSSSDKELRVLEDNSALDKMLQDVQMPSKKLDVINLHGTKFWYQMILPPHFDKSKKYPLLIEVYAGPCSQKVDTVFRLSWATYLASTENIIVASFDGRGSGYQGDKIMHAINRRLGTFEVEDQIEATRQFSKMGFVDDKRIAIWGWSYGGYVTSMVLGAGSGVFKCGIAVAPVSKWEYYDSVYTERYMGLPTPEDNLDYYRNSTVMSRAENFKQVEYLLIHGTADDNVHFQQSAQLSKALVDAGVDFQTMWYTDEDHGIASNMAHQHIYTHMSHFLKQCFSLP
Method: DPPIV-Inhibiting Activity Assay
Porcine kidney-derived DPP-IV was dissolved in a reaction buffer (50 mM Tris-HCl (pH 7.4)/0.1% BSA) at a concentration of 10 mg/ml. After 110 μl of this solution had been combined with 15 μl of an agent, the mixture was incubated at room temperature for 20 minutes. 25 μl of 2 mM Gly-Pro-p-nitroanilide was added (to a final concentration of 0.33 mM) to the solution to initiate the enzyme reaction. The reaction time was 20 minutes. 25 μl of 1N phosphoric acid solution was added to the reaction solution to quench the reaction.

T1 sequence (P10635 whole entry): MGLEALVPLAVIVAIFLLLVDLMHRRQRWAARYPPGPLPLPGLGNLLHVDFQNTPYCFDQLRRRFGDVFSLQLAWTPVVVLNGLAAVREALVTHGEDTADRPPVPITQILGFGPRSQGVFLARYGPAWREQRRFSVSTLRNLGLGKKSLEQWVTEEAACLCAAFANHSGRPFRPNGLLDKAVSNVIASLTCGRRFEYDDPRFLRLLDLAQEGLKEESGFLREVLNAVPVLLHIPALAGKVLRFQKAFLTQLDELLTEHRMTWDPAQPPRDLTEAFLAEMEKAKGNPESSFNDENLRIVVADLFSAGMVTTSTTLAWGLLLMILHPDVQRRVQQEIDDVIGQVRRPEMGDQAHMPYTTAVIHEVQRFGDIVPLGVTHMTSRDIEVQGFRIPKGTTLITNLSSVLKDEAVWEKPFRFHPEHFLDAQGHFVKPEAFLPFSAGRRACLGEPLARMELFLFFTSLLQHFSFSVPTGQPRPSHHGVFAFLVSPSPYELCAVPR

| SMILES | IC50 [1] [µM] | IC50 [2] [µM] | change in the blood glucose level [3] | range of acceptable timing of administration [4] | IC50 [5] [µM] | IC50 [6] [µM] | IC50 [7] [µM] | IC50 [8] [µM] | IC50 [9] [µM] |
| --- | --- | --- | --- | --- | --- | --- | --- | --- | --- |
| CC#CCn1c(N2CCNCC2)nc2cnn(C)c(=O)c21 [Example 119, 3-(2-Butynyl)-5-methyl-2-(piperazin-1-yl)-3,5-dihydroimidazo[4,5-d]pyridazin-4-one] | ≥ 10 | ≥ 10 | no significant change | sufficiently wide ranges of acceptable timing of administration | ≥ 10 | ≥ 10 | ≥ 30 | ≥ 10 |  |
| CC#CCn1c(N2CCNCC2)nc2nc(C#N)n(C)c(=O)c21.O=C(O)C(F)(F)F [Example 82, 7-(2-Butynyl)-2-cyano-1-methyl-8-(piperazin-1-yl)-1,7-dihydropurin-6-one trifluoroacetate] | ≥ 10 | ≥ 10 | no significant change | sufficiently wide ranges of acceptable timing of administration | ≥ 10 | ≥ 10 | ≥ 30 | ≥ 10 |  |
| CC#CCn1c(N2CCNCC2)nc2nc(C#N)n(Cc3ccccc3C#N)c(=O)c21.Cl [Example 229, 7-(2-Butynyl)-1-(2-cyanobenzyl)-6-oxo-8-(piperazin-1-yl)-6,7-dihydro-1H-purine-2-carbonitrile hydrochloride] | ≥ 10 | ≥ 10 | no significant change | sufficiently wide ranges of acceptable timing of administration | ≥ 10 | ≥ 10 | ≥ 30 | ≥ 10 |  |
| CC#CCn1c(N2CCNCC2)nc2nc(Oc3ccccc3CC(=O)OC)n(C)c(=O)c21 [Example 4, Methyl 2-[7-(2-butynyl)-1-methyl-6-oxo-8-(piperazin-1-yl)-6,7-dihydro-1H-purin-2-yloxy]phenylacetate trifluoroacetate] |  |  |  |  |  |  |  |  | 0.211 |
| CC#CCn1c(N2CCNCC2)nc2nc(Oc3ccccc3C(N)=O)n(Cc3cccc(C#N)c3)c(=O)c21 [Example 238, 2-[7-(2-Butynyl)-1-(3-cyanobenzyl)-6-oxo-8-(piperazin-1-yl)-6,7-dihydro-1H-purin-2-yloxy]benzamide trifluoroacetate] |  |  |  |  |  |  |  |  | 0.00119 |
| CC#CCn1c(N2CCNCC2)nc2cnn(Cc3ccccc3C#N)c(=O)c21.O=C(O)C(F)(F)F [Example 267, 2-[3-(2-Butynyl)-4-oxo-2-(piperazin-1-yl)-3,4-dihydroimidazo[4,5-d]pyridazin-5-ylmethyl]benzonitrile trifluoroacetate] | ≥ 10 | ≥ 10 | no significant change | sufficiently wide ranges of acceptable timing of administration | ≥ 10 | ≥ 10 | ≥ 30 | ≥ 10 |  |
| CC#CCn1c(N2CCNCC2)nc2nc(Oc3ccccc3C(N)=O)n(C)c(=O)c21 [Example 122, 2-[7-(2-Butynyl)-1-methyl-6-oxo-8-(piperazin-1-yl)-6,7-dihydro-1H-purin-2-yloxy]benzamide] | ≥ 10 | ≥ 10 | no significant change | sufficiently wide ranges of acceptable timing of administration | ≥ 10 | ≥ 10 | ≥ 30 | ≥ 10 | 0.0153 |
| CC#CCn1c(N2CCCC(N)C2)nc2cnn(C)c(=O)c21.O=C(O)C(F)(F)F (centres unmarked) [Example 120, 2-(3-Aminopiperidin-1-yl)-3-(2-butynyl)-5-methyl-3,5-dihydroimidazo[4,5-d]pyridazin-4-one trifluoroacetate] | ≥ 10 | ≥ 10 | no significant change | sufficiently wide ranges of acceptable timing of administration | ≥ 10 | ≥ 10 | ≥ 30 | ≥ 10 |  |
| CC#CCn1c(N2CCNCC2)nc2nc(C(N)=O)n(C)c(=O)c21 [Example 83, 7-(2-Butynyl)-1-methyl-6-oxo-8-(piperazin-1-yl)-6,7-dihydro-1H-purine-2-carboxamide] |  |  |  |  |  |  |  |  | 0.0274 |
| CC#CCn1c(N2CCNCC2)nc2nc(Oc3ccccc3C(N)=O)n(Cc3ccc(C#N)cc3)c(=O)c21 [Example 235, 2-[7-(2-Butynyl)-1-(4-cyanobenzyl)-6-oxo-8-(piperazin-1-yl)-6,7-dihydro-1H-purin-2-yloxy]benzamide trifluoroacetate] |  |  |  |  |  |  |  |  | 0.00144 |
